# In patent US12152012B2, “BRAG2 inhibitors and applications thereof” (CENTRE NATIONAL DE LA RECHERCHE SCIENTIFIQUE, priority 2018, dated 2024):
# Entries after “also recorded” stand apart in the source; their conditions may differ.
# How the values were obtained:
# [1] = target: T1, BRAG2 (activation of myristoylated Arf6) (Homo sapiens, UniProt Q6DN90); assay: Nucleotide exchange kinetics on liposomes, activation of myristoylated Arf6; format: biochemical; settings: 50 μM
# T1 construct: human BRAG2^Sec7 (390-594) and BRAG2^Sec7PH (390-811); made in house
# T1 sequence (Q6DN90 512-933): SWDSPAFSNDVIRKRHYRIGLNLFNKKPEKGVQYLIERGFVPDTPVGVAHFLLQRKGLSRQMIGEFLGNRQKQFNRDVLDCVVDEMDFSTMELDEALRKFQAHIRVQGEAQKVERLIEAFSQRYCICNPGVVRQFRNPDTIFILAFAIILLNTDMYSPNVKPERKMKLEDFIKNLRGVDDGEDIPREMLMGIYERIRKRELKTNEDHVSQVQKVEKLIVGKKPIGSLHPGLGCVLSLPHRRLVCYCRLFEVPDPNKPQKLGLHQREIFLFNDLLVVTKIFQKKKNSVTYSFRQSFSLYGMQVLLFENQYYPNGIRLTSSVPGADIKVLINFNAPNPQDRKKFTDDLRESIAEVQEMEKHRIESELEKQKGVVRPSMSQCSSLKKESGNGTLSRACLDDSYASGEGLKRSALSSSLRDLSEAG
# Description: FIG. 2. Bragsin is a specific inhibitor of the ArfGEF BRAG2 • a. Bragsin1 has no effect on the Sec7 domain of human ArfGEFs in solution. Nucleotide exchange kinetics were measured by fluorescence kinetics in the presence of Bragsin1 (50 μM) or DMSO using purified Sec7 domains and a truncated version of Arf1 (D17Arf1), which can be activated in solution. […] Nucleotide exchange kinetics were determined in the presence of Bragsin1 (50 μM) or DMSO with ArfGEF constructs carrying membrane-binding domains and myristoylated Arf1. […] was artificially tethered to liposomes by a C-terminal hexahistidine tag as described in (Peurois, F. et al. Biochem J 474, 1259-1272 (2017). Representative kinetic profiles are given in FIG. 15. • c. Bragsin1 inhibits the activation of myristoylated Arf6 by BRAG2 on liposomes. Experiments were carried out as in FIG. 2b. Representative kinetic profiles are given in FIG. 16. • d. Dose-response of Bragsin1 and Bragsin2 towards myristoylated Arf1 and BRAG2 on liposomes. Experiments were carried out as in FIG. 2b. • e. Silencing of BRAG2 phenocopies the effect of Bragsin2 on the TGN46 compartment. […]
# The effect of Bragsin1 on the GEF efficiency of representative human ArfGEFs was evaluated by fluorescence kinetics using highly purified recombinant Arf GTPases and ArfGEFs. […]
# [2] = Stability of DMSO stock solution (1H-NMR); format: physicochemical; settings: kept in DMSO for several months
# [3] = target: T2, BRAG2 binding to PIP2-containing liposomes (Homo sapiens, UniProt Q6DN90); assay: Liposome flotation assay
# T2 construct: human BRAG2^Sec7 (390-594) and BRAG2^Sec7PH (390-811); made in house
# T2 sequence (Q6DN90 512-933): as above
# Description: FIG. 4. Bragsin is a non-competitive inhibitor of protein-membrane interactions • a. Bragsin1 (in violet) overlaps with the canonical phosphoinositide-binding site of the PH domain of BRAG2. IP3 (in red) is from the GRP1-IP3 complex (DiNitto, J. P. et al. Structural basis and mechanism of autoregulation in 3-phosphoinositide-dependent Grp1 family Arf GTPase exchange factors. Mol Cell 28, 569-83 (2007)). The position of the membrane is indicated by an arrow. • b. […] Binding was measured by liposome flotation. U: bottom fraction, containing unbound proteins; B: top fraction, containing liposome-bound proteins. […] Quantification is shown below. • c. Inhibition of BRAG2 by Bragsin2 is stronger in the presence of liposomes that contain PIP2 lipids. Kinetics were measured as in FIG. 2b.
# Bragsin may partially overlap with a lipid bound at this position was predicted by comparison of the PH domain of a cytohesin ArfGEF with a phosphoinositide headgroup bound to the canonical lipid-binding site (DiNitto, J. P. et al. Mol Cell 28, 569-83 (2007))(FIG. 4a). Bragsin inhibition could act by blocking the interaction of BRAG2 with membranes. […] Alternatively, Bragsin may bind at the interface between the PH domain and the membrane if inhibition is sensitive to the lipid composition of the membrane. […]
Inhibition of BRAG2-mediated activation of myristoylated Arf6 [1],Stability in DMSO stock solution by 1H-NMR [2],SMILES,Displacement of BRAG2 from PIP2-containing liposomes [3]
inhibits,completely decomposed,"Cc1ccc2oc(C(F)(F)F)cc(=O)c2c1[N+](=O)[O-] [Bragsin1, 6-methyl-5-nitro-2-(trifluoromethyl)-4H-chromen-4-one]",–
–,–,"COc1ccc2oc(C(F)(F)F)cc(=O)c2c1[N+](=O)[O-] [Bragsin2, 6-methoxy-5-nitro-2-(trifluoromethyl)-4H-chromen-4-one]",did not displace; also recorded: does not impair binding
